Data on one compound can be found in ChEMBL document CHEMBL6120970, “Discovery and Functional Characterization of a Potent, Selective, and Metabolically Stable PROTAC of the Protein Kinases DYRK1A and DYRK1B” (J Med Chem, 2024).

The target in data set [1] is T1, Protein cereblon/Dual specificity tyrosine-phosphorylation-regulated kinase 1A (Homo sapiens, UniProt Q13627+Q96SW2). Briefly: PROTAC activity at CRBN/DYRK1A in HEK293 cells assessed as induction of degradation of DYRK1A incubated for 24 hrs. The format is cell-based.
Target sequence in this assay (Q96SW2 whole entry, other chains not shown): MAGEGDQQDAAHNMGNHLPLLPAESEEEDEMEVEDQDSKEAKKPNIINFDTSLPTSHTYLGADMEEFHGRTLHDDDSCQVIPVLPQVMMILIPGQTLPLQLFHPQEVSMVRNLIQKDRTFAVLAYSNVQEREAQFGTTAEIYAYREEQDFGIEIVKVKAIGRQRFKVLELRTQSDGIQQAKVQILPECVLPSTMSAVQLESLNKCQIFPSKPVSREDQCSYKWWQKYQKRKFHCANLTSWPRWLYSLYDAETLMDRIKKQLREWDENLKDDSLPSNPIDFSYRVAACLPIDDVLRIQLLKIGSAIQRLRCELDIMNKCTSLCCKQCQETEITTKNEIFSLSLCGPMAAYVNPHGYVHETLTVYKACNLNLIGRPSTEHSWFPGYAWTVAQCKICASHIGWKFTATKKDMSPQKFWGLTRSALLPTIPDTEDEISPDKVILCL
For data set [2], the target named is T1, Protein cereblon/Dual specificity tyrosine-phosphorylation-regulated kinase 1A. Briefly: PROTAC activity at CRBN/DYRK1A in HEK293 cells assessed as induction of degradation of DYRK1A by measuring maximum efficacy at 1 to 10000 nM incubated for 24 hrs relative to control. It is filed as cell-based. Conditions: dose 1-10000 nM.
Target sequence in this assay (Q96SW2 whole entry, looked up, other chains not shown): as the sequence (Q96SW2 whole entry, other chains not shown) above
Data set [3] addresses Protein cereblon/Dual specificity tyrosine-phosphorylation-regulated kinase 1B (Homo sapiens) (UniProt Q9Y463+Q96SW2). Nature of the data set: PROTAC activity at CRBN/DYRK1B in HEK293 cells assessed as induction of degradation of DYRK1B by measuring maximum efficacy at 1 to 10000 nM incubated for 24 hrs relative to control. The format is cell-based. Conditions: dose 1-10000 nM.

The target in data set [4] is T1, Protein cereblon/Dual specificity tyrosine-phosphorylation-regulated kinase 1A. Briefly: PROTAC activity at CRBN/DYRK1A in HEK293 cells assessed as induction of degradation of DYRK1A at 100 nM preincubated for 24 to 72 hrs followed by washout and subsequent addition of medium containing compounds measured for 48 hrs. The format is cell-based. Conditions: time 72-120 hrs.
Target sequence in this assay (Q96SW2 whole entry, looked up, other chains not shown): as the sequence (Q96SW2 whole entry, other chains not shown) above

In data set [5] the test system is SH-SY5Y. Nature of the data set: Cytotoxicity against human SH-SY5Y cells assessed as reduction in cell viability at 100 nM measured upto 96 hrs by real-time cell analysis. The format is functional, cell-based.
Data set [6] is described as follows: Plasma protein binding (unknown origin). Conditions: read-out: PPB. The format is ADME, cell-free.
Data set [7] is described as follows: Cmax in mouse at 10 mg/kg, ip administered as single dose. To be noted: in vivo. It is filed as ADME, organism-based.
The nature of data set [8]: AUC last in mouse at 10 mg/kg, ip administered as single dose. The format is ADME, organism-based. Conditions: in vivo.
A short description of data set [9]: Tmax in mouse at 10 mg/kg, po administered as single dose. The format is ADME, organism-based. Conditions: in vivo.
A short description of data set [10]: AUC last in mouse at 10 mg/kg, po administered as single dose. To be noted: in vivo. It is filed as ADME, organism-based.

Calls of active or inactive are those of the source. The rule behind the calls is not given here.

Protein cereblon/Dual specificity tyrosine-phosphorylation-regulated kinase 1B (Homo sapiens), sequence (Q96SW2 whole entry, looked up): as the sequence (Q96SW2 whole entry, other chains not shown) above
Protein cereblon/Dual specificity tyrosine-phosphorylation-regulated kinase 1B (Homo sapiens), sequence (Q9Y463 whole entry, looked up): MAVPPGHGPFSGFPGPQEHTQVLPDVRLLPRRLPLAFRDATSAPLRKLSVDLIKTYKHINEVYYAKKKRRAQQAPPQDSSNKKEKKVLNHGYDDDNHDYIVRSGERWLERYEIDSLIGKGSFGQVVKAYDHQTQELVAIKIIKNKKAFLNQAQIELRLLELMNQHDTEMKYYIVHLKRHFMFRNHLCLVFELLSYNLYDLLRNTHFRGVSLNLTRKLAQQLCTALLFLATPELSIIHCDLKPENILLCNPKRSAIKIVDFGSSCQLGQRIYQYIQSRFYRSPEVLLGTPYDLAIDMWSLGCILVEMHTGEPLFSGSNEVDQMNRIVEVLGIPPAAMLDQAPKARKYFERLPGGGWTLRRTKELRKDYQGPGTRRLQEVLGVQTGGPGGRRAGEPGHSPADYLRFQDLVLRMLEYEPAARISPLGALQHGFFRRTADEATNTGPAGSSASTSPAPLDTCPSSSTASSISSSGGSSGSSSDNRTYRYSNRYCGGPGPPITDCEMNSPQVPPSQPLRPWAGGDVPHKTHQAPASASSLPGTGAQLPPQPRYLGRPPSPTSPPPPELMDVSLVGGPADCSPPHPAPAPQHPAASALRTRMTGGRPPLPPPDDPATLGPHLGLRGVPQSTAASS

The DC50 is the concentration giving 50% degradation. What is called Emax is the size of the effect at its maximum, as opposed to the concentration needed. Broadly, the Cmax is the highest concentration seen after dosing. For orientation: AUC(0-t) means the area under the concentration-time curve up to a stated or last time point. One may read the Tmax as the time from dosing to the highest level. `Cc1nc2ccc(-c3ccnc(N)c3)nc2n1-c1ccc(N2CCN(CC#Cc3ccc(N4CCC(C(=O)N5CCC(n6cc(CNc7cccc8c7C(=O)N(C7CCC(=O)NC7=O)C8=O)cn6)CC5)CC4)nc3)CC2)c(F)c1` (stereo not given): the DC50 in data set [1] was determined as 0.0123 µM. In addition, the Emax in data set [2] was found to be 90%; in data set [3] it was 50%. Besides, the outcome in [4] and in [5] was Active. In addition, the fraction unbound in [6] was under 0.0062. In addition, the Cmax in data set [7] is 8130 ng/mL. The results for the AUC(0-t) in data set [8] and in [10] were 26300 ng·h/mL and 56 ng·h/mL, respectively. Moreover, the Tmax in [9] was 30 min.
